Earlier results in US20250134380A1, “DETECTION AND LOCALIZATION OF DISEASE UTILIZING FLUORESCENCE SPECTRA OF EXOGENOUS FLUOROPHORES” (PREVIEW MEDICAL INC., priority 2022, published 2025).

Tested on: hyperthermia treated tumor
Conditions: animal models; hyperthermia treated vs non-hyperthermia treated tumors

CC1(C)C(/C=C/C=C/C=C/C=C2\N(CCCCS(=O)(=O)O)c3ccc4ccccc4c3C2(C)C)=[N+](CCCCS(=O)(=O)[O-])c2ccc3ccccc3c21 [ICG, Indocyanine green]
ICG uptake in hyperthermia treated tumor relative to non-hyperthermia treated tumors: 1.23 times
